Assay results published in patent US4804743A, “Proline-containing renin inhibitors” (Warner-Lambert Copmany, priority 1987, dated 1989).

Target: T1, renin (Homo sapiens, UniProt P00797)
T1 sequence (P00797 67-406): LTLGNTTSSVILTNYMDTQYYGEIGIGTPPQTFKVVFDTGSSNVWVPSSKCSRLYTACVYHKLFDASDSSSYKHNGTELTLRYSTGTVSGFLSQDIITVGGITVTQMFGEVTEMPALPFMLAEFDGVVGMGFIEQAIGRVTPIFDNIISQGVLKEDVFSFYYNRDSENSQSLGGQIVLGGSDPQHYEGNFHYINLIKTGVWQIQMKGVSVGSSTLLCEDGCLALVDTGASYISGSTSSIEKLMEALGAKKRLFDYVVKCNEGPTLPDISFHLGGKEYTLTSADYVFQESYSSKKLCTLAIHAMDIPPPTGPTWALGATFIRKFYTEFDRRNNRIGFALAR
Experiment: in vitro renin inhibitory activity, radioimmunoassay for angiotensin I
Assay type: biochemical
Conditions: renin incubated two hours at 37° with substrate angiotensinogen; angiotensin I measured by radioimmunoassay
Protocol: The effectiveness of the aforementioned compounds is determined by a test for in vitro renin inhibitory activity. This activity is determined by a standard radioimmunoassay for angiotensin I. In this assay the enzyme, renin, incubated for two hours at 37° in the presence of a substrate, angiotensinogen, generates the product, angiotensin I. Test compounds are added to the incubation mixture. Relative activity is reported as the IC50, which is the molar concentration of test compound causing a 50% inhibition of the renin activity.

- IC50: 1100 nM
Substance: BOC-PHE-LEU-STA-GLN-PRO-OCH3 [Example 8]
